According to patent US12697322B2, “Methods of treating cancer using androgen receptor antagonists” (Garvan Institute of Medical Research, priority 2019, dated 2026):
“Also recorded” adds a separate entry of the source.

Legend:
[1] = test system: MDA_MB-231-EGFP-Luc cells; assay: MDA-MB-231-EGFP-Luc orthotopic xenograft, Docetaxel and Seviteronel (Example 12, FIG. 12); assay type: in vivo, NSG female mice
Protocol: 1×10^6 MDA_MB-231-EGFP-Luc cells were injected orthotopically into the mammary fat pad of NSG female mice. 14 animals were enrolled per treatment arm to reach 80% statistical power. Tumour size was monitored by caliper measurement twice per week. At the time tumour size reached 50-150 mm^3 animals were randomized into treatment arms: Vehicle (Veh), Seviteronel (Sev), Docetaxel, Docetaxel+Seviteronel. Seviteronel (100 mg/kg) was administrated via oral gavage daily (6 days on+1 day off) for cycles of 4. Seviteronel was resuspended into a 5% DMSO, 0.1% Tween 80, Hydro-methylcellulose solution at a 5 mg/ml concentration. […] Growth kinetics were monitored through the course of treatment and plotted using graph-pad prism (V9). […] At treatment endpoint, animals were injected with luciferin (10 μl/gr of 15 mg/ml stock) and metastatic burden analyzed using an IVIS spectrum imager 10 min post injection. […]
1×10^6 MDA_MB-231-EGFP-Luc cells were injected orthotopically into the mammary fat pad of NSG female mice. […] Tumour size was monitored by caliper measurement twice per week. […] Growth kinetics were monitored through the course of treatment by caliper measurement. […] Metastasis development was monitored until animals reached ethical end-point by weekly IVIS imaging. […]

[2] = test system: HMLER-CD44Hi and HCC38 CD44Hi cells; assay: Tumoursphere formation assay; assay type: cell-based, human
[3] = test system: CD44^Hi cells isolated from HMLER and HCC38 cell lines; assay: Cell proliferation assay (CyQuant); assay type: cell-based, human; settings: CD44^Hi cells from HMLER and HCC38
Protocol: HMLER, HCC38 and MDA-MB-231 cells were plated in triplicate in 96-well plates at the densities outlined in Table 3. After 24 hours, cells were treated with various chemotherapeutic agents at the following doses: Doxorubicin (0 nM, 25 nM, 50 nM, 75 nM, 100 nM, 200 nM), Cisplatin (0 μg/ml, 0.1 μg/ml, 0.5 μg/ml, 1 μg/ml, 2 μg/ml, 5 μg/ml) or Docetaxel (0 nM, 1 nM, 5 nM, 10 nM, 25 nM, 50 nM); Androgen receptor agonists: Enobosarm (0 nM, 25 nM, 50 nM, 100 nM, 200 nM, 400 nM) or DHT (0 nM, 1 nM, 5 nM, 10 nM, 20 nM, 40 nM); or AR antagonist: Seviteronel (0 nM, 0.5 nM, 2 nM, 10 nM, 20 nM, 50 nM). Assays were harvested daily for five days by removing culture media and storing at −80′C. Cell proliferation was determined using CyQuant Cell Proliferation assay kit according to manufacturer's protocol (ThermoFisher Scientific) and fluorescence was measured at ~480 nm excitation and ~520 nm emission using a microplate reader.

[4] = test system: HMLER and HCC38 CD44^Lo cells; assay: Flow cytometry of chemotherapy-induced CD44^Lo to CD44^Hi plasticity; assay type: cell-based, human; settings: for induction of CD44^Lo-to-CD44^Hi transition by chemotherapy: one dose of chemotherapy for 72 hours
Source text: Cells were stained and fixed as with DHT treatment.
Using purified populations of CD44^Lo cells (with no CD44^Hi fraction) the effects of chemotherapy on cellular plasticity was investigated using flow cytometry.

[5] = test system: MDA-MB-231 EGFP-Luciferase cells; assay: MDA-MB-231 xenograft, Seviteronel and Docetaxel (Example 5, FIG. 11); assay type: in vivo, mice; settings: Seviteronel 100 mg/kg daily oral gavage, DTX 40 mg/kg i.p., 3 doses
Protocol: Forty-eight mice were enrolled in the experiment and randomized into 4 treatment arms: Vehicle (Veh), Seviteronel (Sev), Docetaxel (DTX) or combination therapy (Sev+Dtx). Animals were 6-8 weeks of age at the time of injection. MDA-MB-231 EGFP-Luciferase cells were cultured in DMEM 10% FBS 1% P/S. On the surgery date, 1×10^6 cells resuspended in 20% Matrigel/DMEM were injected unilaterally into the mammary fat pad. Tumour growth was monitored twice per week to establish growth kinetics. Five weeks post-injection, when tumour size ranged between 50-100 mm^3, animals were randomized to receive daily oral gavage with either vehicle (1% Carboxymethylcellulose, 0.1% Tween-80 and 5% DMSO) or Seviteronel (100 mg/kg). Animals were dosed from Monday to Saturday, leaving 1 day recovery per week. After one week, animals were again randomized within the Vehicle or Seviteronel groups to Control or Chemotherapy (DTX). […] Metastatic burden and tumour size was determined using the IVIS-spectrum imaging system. […] The presence of metastatic cells in each organ was additionally determined by FACS analysis (fluorescence activate cell sorting) using a panel of antibodies previously established in the lab (CD298-PE, CD44-PEcy7 and CD104EF660). Results were analyzed and graphed using Flowjo3 and prism 8. […] Metastatic incidence was analyzed applying two-way ANOVA uncorrected Fisher's LSD test.

[6] = test system: HMLER-CD44Hi and HCC38 CD44Hi cells; assay: Tumoursphere formation assay; assay type: cell-based, human; settings: CD44^Hi cells, counted at Day 14
Protocol: Single cell suspensions were plated in ultra-low attachment 96-well plates (Corning #CLS3474, New York, USA). HMLE-CD44^Hi cells were plated at a density of 50 cells/well in 100 μl of BPA-free MEGM media (Lonza # CC-3150, Basal, Switzerland). HCC38-CD44^Hi cells were plated at a density of 100 cells/well in serum-free RPMI with 1% penicillin/streptomycin, 20 ng/ml EGF, 20 ng/ml FGFb, 4 μg/mL heparin, 1×B27 and 1% methyl cellulose (Sigma). Media was replenished every five days by adding 50 μL of the appropriate tumoursphere media to each well. Tumourspheres were counted at Day 14. Results are presented as tumoursphere formation efficiency (number of spheres per well divided by the number of cells seeded per well). At Day 14, mammospheres were collected using a 40 μm cell strainer, washed with PBS and dissociated using trypsin-EDTA solution, and stained with anti-CD44PECy7 and anti-CD104PE as per standard FACS staining protocol.

[7] = test system: ELX12-58 PDX model; assay: ELX12-58 PDX model with PEG-Doxorubicin or Cisplatin and Seviteronel (FIG. 15); assay type: in vivo, NSG female mice; settings: ELX-12-58 PDX
Source text: Freshly cut tumour chunks derived from a previously expanded tumour (ELX12-58 PDX model) were transferred into the mammary fat pad of NSG female mice. 15 animals were enrolled per treatment arm. Tumour size was monitored by caliper measurement as previously described. At the time tumour size reached 50-150 mm^3 animals were randomized into treatment arms: Vehicle (Veh), PEG-Doxorubicin (PEG-Dox) and PEG-Dox+Sev. Drug preparation and treatment administration was followed as previously described for the first round of treatment. PEG-Dox (Liposomal Doxorubicin Sun. R:202827) was administrated by weekly injections to a final concentration of 4 mg/kg. At treatment end-point animals were harvested and primary tumour, lymph node metastasis (if present), lung and liver were collected to generate FFPEs for histopathology analysis. […] Treatment was extended for 2 additional weeks, following the 3rd dose of chemotherapy, administrating a total of 5 EPG-Dox injections for these animals. Animals were followed up for 2.5 months, culling mice before if reached ethical end-point. Primary tumour and organs to determine metastatic burden were collected.

| Compound | tumour growth compared with Veh (FIG. 12B) ([1]; Seviteronel 150 mg/kg/day 1st week then 100 mg/kg/day for 3 weeks, Dtx 20 mg/kg i.p. x3) | size of tumorspheres [2] | CD44^Hi proliferation [3] | blocking of chemotherapy-induced CD44^Lo-to-CD44^Hi transitions ([4]; with chemotherapy simultaneously for 72 hours, Seviteronel 10 μM) | tumour growth [5] | tumoursphere formation (tumoursphere-forming efficiency) [6] | induction of CD44^Lo-to-CD44^Hi transition by chemotherapy [4] | tumour burden [7] | animals clear of metastasis (metastasis free survival) ([1]; 10 weeks following commencement of second round of treatment (Day 77), IVIS) |
| --- | --- | --- | --- | --- | --- | --- | --- | --- | --- |
| CC(C)[C@](O)(c1ccc2cc(OC(F)F)c(OC(F)F)cc2c1)c1c[nH]nn1 [Seviteronel, (1S)-1-[6,7-bis(difluoromethoxy)naphthalen-2-yl]-2-methyl-1-(2H-triazol-4-yl)propan-1-ol] | significantly reduces tumour growth compared with Veh treatmet arm | reduces the size of tumorspheres | decreased CD44Hi proliferation; also recorded: decrease CD44^Hi proliferation; also recorded: inhibits the growth of CD44^Hi cells | blocks chemotherapy-induced CD44^Lo-to-CD44^Hi transitions; also recorded: inhibits chemotherapy-induced CD44Lo-to-CD44-Hi plasticity; also recorded: can be blocked | significantly reduces tumour growth kinetics compared to control | decrease; also recorded: dose-dependently inhibits tumoursphere-forming ability |  |  |  |
| N.N.[Cl][Pt][Cl] [Cisplatin] |  |  |  |  |  |  | induce CD44^Lo cells to transition to the CD44^Hi state | did not reduce ELX-12-58 tumour burden |  |
| CC(=O)O[C@@]12CO[C@@H]1C[C@H](O)[C@@]1(C)C(=O)[C@H](O)C3=C(C)[C@@H](OC(=O)[C@H](O)[C@@H](NC(=O)OC(C)(C)C)c4ccccc4)C[C@@](O)([C@@H](OC(=O)c4ccccc4)[C@H]21)C3(C)C [Docetaxel] |  |  |  |  | significantly reduces tumour growth compared to Seviteronel alone |  | induce CD44^Lo cells to transition to the CD44^Hi state |  | 0% |
